# US10765747B2 (SWEDISH ORPHAN BIOVITRUM AB (PUBL), priority 2004, dated 2020)
# Where two headings read alike, the source gives them in different places.
# Legend:
# [1] = molecular target: T1, anion binding site on IL-1ra (Homo sapiens, UniProt P18510); conditions: for Kd: read-out: K^dX, Kd for competing anion binding to the anion binding site of IL-1ra, competition with 10 mM citrate, 1 mM IL-1ra, pH 6.5, 70 mM NaCl
# Description: (§1) After spinning, about half of the solution passed through the filter as filtrate, while the remaining solution remained above the filter as retentate.
# (§2) K^dL is the Kd for ligand binding to protein and is equal to the concentration of P (free protein) times the concentration of L (free ligand), divided by the concentration of PL (protein bound to ligand). K^dX is the Kd for competitive anion binding to protein and is equal to the concentration of P (free protein) times the concentration of X (free competing anion), divided by concentration of PX (protein bound to competing anion).
# (§3) By replacing the (PX) term with (Xfree)(Pfree)/K^dX, which is derived from the equilibrium equation shown above, the expression for K^dLapp can be reduced to: K^dLapp=K^dL[1+(Xfree/K^dX)] Thus, if K^dLapp is plotted versus Xfree, the y-intercept will be equal to K^dL and the slope will be equal to K^dL/K^dX. Rearranging, K^dX will be equal to the y-intercept divided by the slope.
# (§4) The concentration of free protein is calculated to be the total concentration of protein in the sample minus the concentration of bound protein (which is equal to the concentration of bound ligand). […] In other words, Xfree=Xtotal−ΔXbound as Xtotal is increased.
# [2] = molecular target: T2, IL-1ra (Homo sapiens, UniProt P18510); assay: Derivatization of IL-1ra with methyl acetyl phosphate (MAP) in various buffers, reverse-phase HPLC; parameters: additional N-terminal methionine (not a tag proper); host or cells: E. coli (stated for anakinra in the background); conditions: for rate of derivatization of IL-1ra with MAP compared with phosphate buffer: pH 6.3, 6.5, 6.7; for rate of derivatization of IL-1ra with MAP in 20 mM compared with 10 mM buffer: pH 6.5
# T2 sequence (P18510 with tags, fused parts or gaps): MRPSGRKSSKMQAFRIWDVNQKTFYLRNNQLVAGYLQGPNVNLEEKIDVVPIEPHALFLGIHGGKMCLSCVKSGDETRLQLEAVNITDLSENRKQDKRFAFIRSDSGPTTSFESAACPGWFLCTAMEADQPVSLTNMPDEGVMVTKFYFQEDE
# Description: IL-1ra was derivatized with MAP in the presence of citrate or phosphate as follows. […] The reaction was incubated at 37° C. and 25 μl aliquots were taken using an HPLC autosampler at 0, 45, 90, 135, 180, 225, and 270 minutes. Each aliquot was analyzed by reverse-phase HPLC using an Agilent 110 HPLC equipped with a Jupiter 5u C4 300A reverse-phase HPLC column (4.6×250 mm, Phenomenex, Torrance, Calif.), an on-line UV detector and a temperature-controlled 100-well sample tray set at 37° C. The flow rate was set at 1 ml/min and the column was maintained at a temperature of 50° C. The column was pre-equilibrated for 15 min (flow rate 1 ml/min) with 65% buffer A (0.1% trifluoroacetic acid (TFA) in water) and 35% buffer B (90% acetonitrile, 0.1% TFA in water). After loading, the analytes were eluted using a gradient ramping from 35% to 50% buffer B (90% acetonitrile, 0.1% TFA in water) over 25 minutes.
# The reaction was incubated at 37° C. and 25 μl aliquots were taken using an HPLC autosampler at 0, 45, 90, 135, 180, 225, and 270 minutes. Each aliquot was analyzed by reverse-phase HPLC as described above for derivatization in the presence of citrate.
# The reaction was incubated at 37° C. and 25 μl aliquots were taken using an HPLC autosampler at 0, 45, 90, 135, 180, 225, and 270 minutes. Each aliquot was analyzed by reverse-phase HPLC as described above for derivatization in the presence of citrate. […] Four weakly resolved peaks were identified in this experiment and are indicated on FIG. 15.
# In particular, each chromatogram from FIG. 16A was deconvoluted using PeakFit™ (Systat Software Inc.). The area under the each of the deconvoluted peaks (peaks 1-4) at each time point (0, 45, 90, 135, 180, 225, and 270 minutes) was then integrated. Deconvoluted peaks 1-4 are labeled on FIG. 16B and the integrated area under each one is shown below. […] The integrated area of deconvoluted peak 4 at time points 0, 45, 90, 135, 180 minutes was then plotted against the incubation time of the reaction that produced that peak. The resulting line has a slope of 68.931 hour^−1.
# The rate of derivatization of IL-1ra with MAP was then calculated for various experiments in the presence of various buffers and at various pHs, according to the methods discussed above.
# [3] = pH 6.5 and 39° C., estimated from literature-reported pKas
# [4] = molecular target: T2, IL-1ra; conditions: for reduction in the rate of aggregation of IL-1ra: 10 mM accessory molecule
# Description: The rate of aggregation was determined as the slope of the linear region of the saturation curve calculated using the SoftMax Pro program (Molecular Devices).
# [5] = pH 6.5 and 39° C.; cited from earlier work
# [6] = molecular target: T2, IL-1ra; assay: Citrate binding to IL-1ra (spin column filtration, HPLC, Scatchard plot)
# [7] = molecular target: T1, anion binding site on IL-1ra; assay: biochemical; conditions: K^dL, Kd of citrate (y-intercept of K^dLapp plot)
# Description: as §1, §2, §3, §4
# [8] = pH 6.5, 29° C., IL-1ra 140 mg/ml
# T1 sequence (P18510 with tags, fused parts or gaps): as above
compound,measurement,setting,value
phosphate,Kd,[1],12.6 mM
same,"level of derivatization with MAP at all positions except the N-terminal amine, compared with citrate or pyrophosphate","[2]; 10 mM buffer, 270 minutes, 37° C.",greater
same,extent of derivatization of IL-1ra with MAP compared with citrate,"[2]; 10 mM buffer, pH 6.3, 6.5 or 6.7, 5.5 hours",greater extent
same,predicted negative charges,[3],predominantly one negative charge
same,reduction in the rate of aggregation of IL-1ra,[4]; [8],~20%
O=P(O)(O)OP(=O)(O)O [pyrophosphate],"competing with citrate for the citrate binding site on IL-1ra, compared with phosphate","[1]; 0-20 mM competing anion, 10 mM citrate",more effective
same,Kd,[1],2.99 mM
same,rate of derivatization of IL-1ra with MAP compared with phosphate buffer,[2],slower
same,rate of derivatization of IL-1ra with MAP in 20 mM compared with 10 mM buffer,[2],slower
same,predicted negative charges,[3],between two and three negative charges
same,"estimated pKa, first ionizable hydrogen",[5],0.83
same,"estimated pKa, fourth ionizable hydrogen",[5],9.46
same,"estimated pKa, second ionizable hydrogen",[5],2.26
same,"estimated pKa, third ionizable hydrogen",[5],6.72
same,reduction in the rate of aggregation of IL-1ra,[4]; [8],~90%
same,"rate of aggregation of IL-1ra with increasing anion concentration, compared with phosphate buffer","[4]; 1 to 125 mM, 29° C.",decreased more rapidly
same,concentration at which the reduction in the rate of aggregation leveled off,[4]; [8],20 mM
O=C(O)CC(O)(CC(=O)O)C(=O)O [citrate],Kd,[6],3.85 mM
same,number of binding sites on IL-1ra (x-intercept of Scatchard plot),"[6]; pH 6.5, 70 mM NaCl",0.94
same,rate of derivatization of IL-1ra with MAP compared with phosphate buffer,[2],slower
same,rate of derivatization of IL-1ra with MAP in 20 mM compared with 10 mM buffer,[2],slower
same,Kd,"[7]; phosphate competition experiment, data not shown",5 mM
same,Kd,[7]; pyrophosphate competition experiment,3.89 mM
same,predicted negative charges,[3],three negative charges
same,reduction in the rate of aggregation of IL-1ra,[4]; [8],~90%
IL-1ra: Purified human recombinant interleukin-1 receptor antagonist having the amino acid sequence of SEQ ID NO: 5 (anakinra),rate of derivatization of IL-1ra with MAP (slope of integrated area of deconvoluted peak 4 versus incubation time),"[2]; 10 mM citrate, pH 6.5, 37° C., time points 0-180 minutes",68.931 h⁻¹
